Literature values as cited in US20130064888A1, “PHARMACEUTICAL FORMULATIONS” (priority 2011, published 2013).

Tests used:
[1] = at 25° C.; practically insoluble in water
[2] = many organic solvents, including ethanol

## 5-chloro-N-({(5S)-2-oxo-3-[4-(3-oxo-4-morpholinyl)-phenyl]-1,3-oxaolidin-5-yl}methyl-2-thiophencarboxamide [Rivaroxaban]
[1]
  water solubility: < 100 µg/mL
[2]
  solubility in organic solvents: low solubility
